Columns and labels:
RPMI-8226 [1] = assay: NCI 60 Cell One-Dose Screen; format: cell-based, human; conditions: RPMI-8226, Leukemia; single dose 10^-5 M
OVCAR-5 = format: cell-based; conditions: OVCAR-5, Ovarian Cancer
HOP-92 = assay: NCI 60 Cell One-Dose Screen; format: cell-based, human; conditions: HOP-92, Non-Small Cell Lung Cancer; single dose 10^-5 M
SF-539 = format: cell-based; conditions: SF-539, CNS Cancer
DU-145 = format: cell-based; conditions: DU-145, Prostate Cancer
SF-268 = assay: NCI 60 Cell One-Dose Screen; format: cell-based, human; conditions: SF-268, CNS Cancer; single dose 10^-5 M
IGROV1 = assay: NCI 60 Cell One-Dose Screen; format: cell-based, human; conditions: IGROV1, Ovarian Cancer; single dose 10^-5 M
NCI-H226 = format: cell-based; conditions: NCI-H226, Non-Small Cell Lung Cancer
MDA-MB-231/ATCC = assay: NCI 60 Cell One-Dose Screen; format: cell-based, human; conditions: Breast Cancer, single dose 10^-5 M
NCI-H460 = assay: NCI 60 Cell One-Dose Screen; format: cell-based, human; conditions: NCI-H460, Non-Small Cell Lung Cancer; single dose 10^-5 M
HCC-2998 = format: cell-based; conditions: HCC-2998, Colon Cancer
SK-MEL-5 = format: cell-based; conditions: SK-MEL-5, Melanoma
A549/ATCC = format: cell-based; conditions: Non-Small Cell Lung Cancer
MOLT-4 = assay: NCI 60 Cell One-Dose Screen; format: cell-based, human; conditions: MOLT-4, Leukemia; single dose 10^-5 M
SW-620 = format: cell-based; conditions: SW-620, Colon Cancer
T-47D = assay: NCI 60 Cell One-Dose Screen; format: cell-based, human; conditions: Breast Cancer, single dose 10^-5 M
CCRF-CEM = format: cell-based; conditions: Leukemia
NCI-H23 = assay: NCI 60 Cell One-Dose Screen; format: cell-based, human; conditions: NCI-H23, Non-Small Cell Lung Cancer; single dose 10^-5 M
786-0 = format: cell-based; conditions: 786-0, Renal Cancer
HCT-15 = format: cell-based; conditions: HCT-15, Colon Cancer
SK-MEL-28 = assay: NCI 60 Cell One-Dose Screen; format: cell-based, human; conditions: SK-MEL-28, Melanoma; single dose 10^-5 M
UACC-257 = assay: NCI 60 Cell One-Dose Screen; format: cell-based, human; conditions: UACC-257, Melanoma; single dose 10^-5 M
SNB-19 = format: cell-based; conditions: SNB-19, CNS Cancer
M14 = format: cell-based; conditions: M14, Melanoma
EKVX = format: cell-based; conditions: Non-Small Cell Lung Cancer
UO-31 = assay: NCI 60 Cell One-Dose Screen; format: cell-based, human; conditions: UO-31, Renal Cancer; single dose 10^-5 M
COLO 205 = assay: NCI 60 Cell One-Dose Screen; format: cell-based, human; conditions: COLO 205, Colon Cancer; single dose 10^-5 M
ACHN = assay: NCI 60 Cell One-Dose Screen; format: cell-based, human; conditions: Renal Cancer, single dose 10^-5 M
HS 578T = assay: NCI 60 Cell One-Dose Screen; format: cell-based, human; conditions: Breast Cancer, single dose 10^-5 M
U251 = format: cell-based; conditions: U251, CNS Cancer
NCI-H522 = format: cell-based; conditions: NCI-H522, Non-Small Cell Lung Cancer
RPMI-8226 [2] = format: cell-based; conditions: RPMI-8226, Leukemia
[3] = Homo sapiens, read-out: LC50 (the source's name)

Q: How did the “Growth inhibition count (%)” value (RPMI-8226 [1]) turn out when `NCC(=O)NS(=O)(=O)OC[C@H]1O[C@@H](n2cnc3c(N)ncnc32)[C@H](O)[C@@H]1O` [GlySA, glycylsulfamoyladenosine] was run?
A: Its value is 18.04%.

Q: And the GI50 (OVCAR-5; Homo sapiens)?
A: Its GI50 is 0.741 µM.

Q: What about the CC50 (OVCAR-5; [3]) of the same compound?
A: Its CC50 is > 100 µM.

Q: What about the LC50/GI50 (OVCAR-5) of the same compound?
A: Its LC50/GI50 is >134.9.

Q: What about the “Growth inhibition count (%)” value (HOP-92) of the same compound?
A: Its value is 17.26%.

Q: And the GI50 (SF-539; Homo sapiens)?
A: The GI50 was 1.45 µM.

Q: What about the CC50 (SF-539; [3]) of the same compound?
A: The CC50 was 8.91 µM.

Q: What about the LC50/GI50 (SF-539) of the same compound?
A: The LC50/GI50 was 6.2.

Q: And the LC50/GI50 (DU-145)?
A: The LC50/GI50 was >144.5.

Q: What about the GI50 (DU-145; Homo sapiens) of the same compound?
A: The GI50 was 0.692 µM.

Q: And the “Growth inhibition count (%)” value (SF-268)?
A: Its value is 3.776%.

Q: And the “Growth inhibition count (%)” value (IGROV1)?
A: Its value is 11.7%.

Q: And the GI50 (NCI-H226; Homo sapiens)?
A: Its GI50 is 2 µM.

Q: And the CC50 (NCI-H226; [3])?
A: The CC50 was 7.08 µM.

Q: What about the LC50/GI50 (NCI-H226) of the same compound?
A: The LC50/GI50 was 3.5.

Q: And the “Growth inhibition count (%)” value (MDA-MB-231/ATCC)?
A: Its value is 2.608%.

Q: What about the “Growth inhibition count (%)” value (NCI-H460) of the same compound?
A: Its value is 3.35%.

Q: What about the LC50/GI50 (HCC-2998) of the same compound?
A: The LC50/GI50 was 4.6.

Q: And the GI50 (HCC-2998; Homo sapiens)?
A: The GI50 was 2.04 µM.

Q: And the CC50 (HCC-2998; [3])?
A: The CC50 was 9.33 µM.

Q: And the GI50 (SK-MEL-5; Homo sapiens)?
A: The GI50 was 1.86 µM.

Q: What about the LC50/GI50 (SK-MEL-5) of the same compound?
A: The LC50/GI50 was 3.2.

Q: And the GI50 (A549/ATCC; Homo sapiens)?
A: The GI50 was 2.34 µM.

Q: What about the CC50 (A549/ATCC; [3]) of the same compound?
A: Its CC50 is 19.1 µM.

Q: And the LC50/GI50 (A549/ATCC)?
A: Its LC50/GI50 is 8.1.

Q: And the “Growth inhibition count (%)” value (MOLT-4)?
A: Its value is 1.146%.

Q: What about the GI50 (SW-620; Homo sapiens) of the same compound?
A: The GI50 was 3.71 µM.

Q: And the CC50 (SW-620; [3])?
A: The CC50 was > 100 µM.

Q: What about the LC50/GI50 (SW-620) of the same compound?
A: Its LC50/GI50 is >26.9.

Q: And the “Growth inhibition count (%)” value (T-47D)?
A: Its value is 7.656%.

Q: What about the GI50 (CCRF-CEM; Homo sapiens) of the same compound?
A: Its GI50 is 3.71 µM.

Q: And the LC50/GI50 (CCRF-CEM)?
A: Its LC50/GI50 is >26.9.

Q: And the “Growth inhibition count (%)” value (NCI-H23)?
A: The value was 5.695%.

Q: What about the LC50/GI50 (786-0) of the same compound?
A: The LC50/GI50 was 3.8.

Q: What about the GI50 (786-0; Homo sapiens) of the same compound?
A: The GI50 was 1.78 µM.

Q: And the CC50 (786-0; [3])?
A: Its CC50 is 6.76 µM.

Q: And the LC50/GI50 (HCT-15)?
A: The LC50/GI50 was 27.5.

Q: And the GI50 (HCT-15; Homo sapiens)?
A: The GI50 was 2.95 µM.

Q: And the CC50 (HCT-15; [3])?
A: The CC50 was 81.3 µM.

Q: What about the GI50 (MDA-MB-468; Homo sapiens, MDA-MB-468) of the same compound?
A: The GI50 was 0.741 µM.

Q: What about the CC50 (MDA-MB-468; Homo sapiens, MDA-MB-468, read-out: LC50 (μM)) of the same compound?
A: The CC50 was 7.59 µM.

Q: And the LC50/GI50 (MDA-MB-468; MDA-MB-468, Breast Cancer)?
A: Its LC50/GI50 is 10.2.

Q: What about the “Growth inhibition count (%)” value (SK-MEL-28) of the same compound?
A: Its value is 8.357%.

Q: What about the “Growth inhibition count (%)” value (UACC-257) of the same compound?
A: The value was 27.43%.

Q: What about the GI50 (SNB-19; Homo sapiens) of the same compound?
A: The GI50 was 0.38 µM.

Q: What about the CC50 (SNB-19; [3]) of the same compound?
A: The CC50 was 6.92 µM.

Q: And the LC50/GI50 (SNB-19)?
A: The LC50/GI50 was 18.2.

Q: What about the GI50 (M14; Homo sapiens) of the same compound?
A: Its GI50 is 1.82 µM.

Q: What about the CC50 (M14; [3]) of the same compound?
A: Its CC50 is 7.24 µM.

Q: What about the LC50/GI50 (M14) of the same compound?
A: The LC50/GI50 was 4.0.

Q: What about the GI50 (EKVX; Homo sapiens) of the same compound?
A: The GI50 was 2.57 µM.

Q: And the LC50/GI50 (EKVX)?
A: Its LC50/GI50 is >38.9.

Q: What about the “Growth inhibition count (%)” value (UO-31) of the same compound?
A: The value was 6.084%.

Q: And the “Growth inhibition count (%)” value (COLO 205)?
A: Its value is 48.51%.

Q: And the “Growth inhibition count (%)” value (ACHN)?
A: Its value is 11.79%.

Q: And the “Growth inhibition count (%)” value (HS 578T)?
A: Its value is 16.07%.

Q: And the GI50 (U251; Homo sapiens, U-251)?
A: Its GI50 is 0.55 µM.

Q: And the CC50 (U251; Homo sapiens, U-251, read-out: LC50 (the source's name))?
A: The CC50 was 5.75 µM.

Q: What about the LC50/GI50 (U251) of the same compound?
A: The LC50/GI50 was 10.5.

Q: What about the GI50 (NCI-H522; Homo sapiens) of the same compound?
A: Its GI50 is 1.74 µM.

Q: And the CC50 (NCI-H522; [3])?
A: Its CC50 is 8.51 µM.

Q: And the LC50/GI50 (NCI-H522)?
A: The LC50/GI50 was 4.9.

Q: And the GI50 (RPMI-8226 [2]; Homo sapiens)?
A: The GI50 was 3.31 µM.

Q: What about the CC50 (RPMI-8226 [2]; [3]) of the same compound?
A: Its CC50 is > 100 µM.

Q: And the LC50/GI50 (RPMI-8226 [2])?
A: The LC50/GI50 was >30.2.
